In PMC10756276, “Highly specific σ2R/TMEM97 ligand FEM-1689 alleviates neuropathic pain and inhibits the integrated stress response” (Proceedings of the National Academy of Sciences of the …, 2023):
Entries after “also recorded” stand apart in the source; their conditions may differ.

How the values were obtained:
[1] = test system: mechanical hypersensitivity; set-up: method as in PMID 30157134, PMID 32677089; settings: cited from earlier work
[2] = test system: p-ACC in mouse DRG neurons; assay: p-ACC immunocytochemistry in cultured DRG neurons; type: cell-based; settings: 16 h; FEM-1689 10, 100, 1,000 nM; A769662 100 µM; wild-type and TMEM97KO neurons
Protocol: (§1) The ICC protocol was based on a previously published protocol ([76]). […] Cells were blocked with 10% normal goat serum (NGS) in PBS-triton X (0.1%). […] Antibodies were incubated at 4 °C overnight. […] It was washed with PBS twice. […] Images were analyzed using Olympus CellSens. […] Number of cells analyzed are detailed in SI Appendix, Tables S3 and S4. […]
(§2) T his BSA gradient containing the cells was centrifuged at 900g for 5 min at room temperatur e.
(§3) The pellet containing the cells was resuspended in Br ainPhys media (STEMCell #05790) containing 2% […]
(§4) 1% Gluta Max (Gibco # 350 5 0061). Hu man DRG ne uron s were plated a nd grown o n glass coverslips coate d with po ly-D-lysine (Sigma #P7405). C ultured D RG neurons were plated for 24 hours before being treated.
(§5) Methylglyoxal (Sigma- Aldrich #M0252) and F EM- 1689 were serially diluted in media.
(§6) Mouse samples - DRG cultures […]
(§7) anesthesia and decapitated. […]
(§8) section above with minor differences.
(§9) Mouse DRG neurons were grown in
(§10) SAS-0132 and DKR-1677 were […]
(§11) dissolved in 100% DMSO to a final concentr ation of 200mM and stored at - 20 °C. and DKR-1677 were serially diluted in media. Untreated media was completely replaced with media containing each compound. […]
(§12) Slides were […]
incubated with 1:2 diluted hydrogen peroxide in distilled water for 10 min at r oom temper ature and washed twice in distilled water. […]

[3] = test system: p-eIF2α in mouse DRG neurons; assay: p-eIF2α immunocytochemistry in cultured DRG neurons; type: cell-based; settings: 16 h; for phosphorylation of eIF2α: wild-type mouse DRG neurons, 10, 30, 100, 300 nM; for p-eIF2α levels: ISRIB 200 nM
Protocol: as §1, §2, §3, §4, §5, §6, §7, §8, §9, §10, §11, §12
(§13) incubated with 1:2 diluted hydrogen peroxide in distilled water for 10 min at r oom temper ature and washed twice in distilled water. The protease IV was applied to each section and incubated for 5 min at room temperature. Slides were w ashed twice in 1X PBS and RNA scope was performed immediately. A mixture of probes - Tmem97, Scn10a, and Fabp7 – was hybridized for 2 hours at 40 °C in a humidity control tray

[4] = test system: models of traumatic brain injury (TBI); settings: blast injury and controlled cortical impact models; cited from earlier work
[5] = test system: retinal ganglion cells; set-up: method as in PMID 36456686; settings: ischemia/reperfusion injury; cited from earlier work
[6] = test system: BiP in mouse DRG neurons; assay: BiP immunocytochemistry in cultured DRG neurons; type: cell-based; settings: ISRIB 200 nM
Protocol: as §1, §2, §3, §4, §5, §6, §7, §8, §9, §10, §11, §12, §13

[7] = test system: MGO-induced mechanical hypersensitivity, wild-type mice; assay: Methylglyoxal-induced mechanical hypersensitivity; type: in vivo, mouse
[8] = test system: neurite outgrowth; set-up: method as in PMID 31836389; settings: cited from earlier work
[9] = test system: p-eIF2α in human DRG neurons; assay: p-eIF2α immunocytochemistry in cultured human DRG neurons; type: cell-based; settings: MGO 1 µM
[10] = test system: mouse model of neuropathic pain; set-up: method as in PMID 28644012, PMID 27926996; settings: cited from earlier work; for mechanical hypersensitivity / antinociceptive effect: mouse neuropathic pain model
[11] = test system: animal models of age-related neurodegeneration; set-up: method as in PMID 27926996, PMID 29426225; settings: cited from earlier work
[12] = test system: neuronal toxicity induced by mutant huntingtin protein; set-up: method as in PMID 36108101; settings: model of Huntington's disease; cited from earlier work
[13] = target: BZP Rat Brain; assay: PDSP competitive binding assay; settings: dose response curve

SMILES: O=C(O)CCCc1ccccc1 [4-PBA]
- duration of efficacy on mechanical hypersensitivity in vivo [1]: hours

SMILES: N#Cc1c(O)c2c(-c3ccc(-c4ccccc4O)cc3)csc2[nH]c1=O [A769662, reference compound]
- p-ACC levels [2]: elevate; also recorded: increased p-ACC levels in both wild-type and TMEM97KO neurons

SMILES: CCCN1CCN(c2ccc3c(c2)C2CC3CCN2C(=O)OCc2ccccc2)CC1 (stereo not shown) [DKR-1677, reference compound]
- phosphorylation of eIF2α [3]: promote the phosphorylation of eIF2α; also recorded: stimulate the ISR by promoting the phosphorylation of eIF2α
- protection in traumatic brain injury [4]: protective in two different models of traumatic brain injury
- protection of retinal ganglion cells [5]: protects retinal ganglion cells from ischemia/reperfusion injury

SMILES: O=C(COc1ccc(Cl)cc1)NC1CCC(NC(=O)COc2ccc(Cl)cc2)CC1 (stereo not shown) [ISRIB, reference compound]
- p-eIF2α levels ([3]; TMEM97KO mouse DRG neurons): failed to change p-eIF2α immunoreactivity
- p-eIF2α levels ([3]; wild-type mouse DRG neurons): reduced p-eIF2α levels in wild-type neurons
- BiP levels ([6]; TMEM97KO mouse DRG neurons): reduce BiP levels
- BiP levels ([6]; wild-type mouse DRG neurons): reduce BiP levels
- time after drug administration at which antiallodynic effects were observed ([7]; ISRIB 2.5 mg/kg IP): 3 h
- MGO-induced mechanical hypersensitivity ([7]; MGO 20 ng intraplantar, FEM-1689 20 mg/kg IV or ISRIB 2.5 mg/kg IP 24 h after MGO): transient; also recorded: reverted to a hypersensitive state 24 h after injection
- neurite outgrowth [8]: enhances neurite outgrowth
- duration of efficacy on mechanical hypersensitivity in vivo [1]: hours

SMILES: CC(=O)C=O [MGO, Methylglyoxal, reference compound]
- p-eIF2α levels [9]: increased p-eIF2α levels

SMILES: CN1CCN(c2ccc3c(c2)C2CC3CCN2C(=O)OCc2ccccc2)CC1 (stereo not shown) [SAS-0132]
- phosphorylation of eIF2α [3]: promote the phosphorylation of eIF2α; also recorded: stimulate the ISR by promoting the phosphorylation of eIF2α
- effect on the antinociceptive effects of UKH-1114 [10]: inhibit the antinociceptive effects of UKH-1114; also recorded: blocks the antinociceptive activity of UKH-1114
- mechanical hypersensitivity / antinociceptive effect [10]: has no antinociceptive effect on its own
- neuroprotection and cognitive performance [11]: neuroprotective and improves cognitive performance

SMILES: OCCCN1CCCC2CC1c1cc(-c3ccc(C(F)(F)F)cc3)ccc12 (stereo not shown) [UKH-1114]
- mechanical hypersensitivity / antinociceptive effect [10]: alleviates mechanical hypersensitivity following nerve injury
- neuronal toxicity [12]: reduces neuronal toxicity

SMILES: O=C1CN=C(c2ccccc2Cl)c2cc([N+](=O)[O-])ccc2N1 [clonazepam, reference compound]
- LogKi, BZP Rat Brain ([13]; given as LogKi with negative sign): -8.89
- Ki ([13]; read-out: Ki, BZP Rat Brain): 1.29 nM
